Assays:
[1] = biological target: T1, SsuA (alkanesulphonate-binding protein) (Xanthomonas citri, UniProt A0AAI7ZHA1); test: X-ray crystal structure of the complex; details: ligand-binding pocket
T1 construct: mature periplasmic protein without the 42-residue signal peptide (972 bp amplicon), pET28a N-terminal His6 tag with thrombin site, tag cut with thrombin; expressed in E. coli BL21(DE3); one molecule per asymmetric unit

[2] = biological target: T1, SsuA (alkanesulphonate-binding protein); test: thermal shift assay, SYPRO orange; details: 5 mM ligand, 6 µM SsuA, 20 mM Tris pH 7.4, 50 mM NaCl

T1 sequence (A0AAI7ZHA1 entry or part of it): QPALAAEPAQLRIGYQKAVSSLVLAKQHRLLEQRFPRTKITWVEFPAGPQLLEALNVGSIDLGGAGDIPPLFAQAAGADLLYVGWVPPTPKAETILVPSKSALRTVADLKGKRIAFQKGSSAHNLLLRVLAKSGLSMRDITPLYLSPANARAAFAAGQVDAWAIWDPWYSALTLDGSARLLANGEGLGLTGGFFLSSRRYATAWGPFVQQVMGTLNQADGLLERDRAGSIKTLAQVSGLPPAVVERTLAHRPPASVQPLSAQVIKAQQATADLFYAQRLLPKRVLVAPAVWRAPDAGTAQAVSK

Row | Compound | X-ray crystal structure of the complex ([1]; PDB code as in the deposition statement b39 (b17 prints 3KSX for MES)) | Tm (unbound form 39.5 °C) [2] [°C] | X-ray crystal structure of the complex ([1]; 0.1 M HEPES pH 7.5, 1.6 M ammonium sulphate, 0.1 M NaCl) | X-ray crystal structure of the complex ([1]; PDB code as in the deposition statement b39 (b17 prints 3KSJ for MOPS))
1 | O=S(=O)(O)CCN1CCOCC1 [MES, 2-(n-morpholino)-ethanesulphonic acid] | PDB codes 3E4R (SsuA + HEPES), 3KSX (SsuA + MOPS) and 3KSJ (SsuA + MES) | 47.1 |  | 
2 | O=S(=O)(O)CCN1CCN(CCO)CC1 [HEPES, 4-(2-hydroxyethyl)-1-piperazine ethane sulphonic acid] |  | 45.8 | PDB codes 3E4R (SsuA + HEPES), 3KSX (SsuA + MOPS) and 3KSJ (SsuA + MES) | 
3 | O=S(=O)(O)CCCN1CCOCC1 [MOPS, 3-morpholinopropane-1-sulphonic acid] |  | 51 |  | PDB codes 3E4R (SsuA + HEPES), 3KSX (SsuA + MOPS) and 3KSJ (SsuA + MES)
4 | O=S(=O)(O)CCNC1CCCCC1 [CHES, 2-(n-cyclohexylamino)-ethanesulphonic acid] |  | 43.5 |  | 
